The target of the assay is T1, human FGFR4 (Homo sapiens, UniProt P22455).
T1 construct: human FGFR4 cytoplasmic domain (460-802); GST (N); purchased Carna Biosciences 08-136
The experiment in a line: FGFR4 enzymatic assay (HTRF KinEASE-TK). Type of assay: biochemical. To be noted: wild-type human FGFR4 cytoplasmic domain (460-802), GST-tag; 60 min preincubation at 25° C.; ATP 200 μM; read-out: Potency (IC50), FGFR4 enzymatic assay. Here is the method:
The ability of compounds to inhibit human FGFR4 tyrosine kinase activities was determined using a commercially available HTRF® KinEASE™-TK kit (CISBIO, Cat #62TK0PEC) according to the manufacturer's protocol. Wild-type human FGFR4 cytoplasmic domain (460-802) with N-terminal GST-tag was purchased from Carna Biosciences (Carna, Cat #08-136) and used in the kinase enzymatic assay. This assay, run in a 384-well plate format, is a generic method for measuring tyrosine kinase activities using one substrate and a universal detection system. It involves two steps: (1) Enzymatic step: the biotin labeled TK Substrate is incubated with the kinase and then ATP is added to start the enzymatic reaction; during this step, FGFR4 will phosphorylate the TK Substrate-biotin. (2) Detection step: The TK-Antibody labeled with Eu^3+-Cryptate can recognize the phosphorylated TK Substrate-biotin. When the streptavidin-XL665 conjugate binds the biotin, a FRET signal will be detected. Briefly, human FGFR4 (0.25 μg/ml) in the enzymatic buffer solutions (250 mM HEPES, pH7.0, 0.1% NaN3, 0.05% BSA, 0.5 mM Orthovanadate) were mixed with various concentrations of the test compound (dissolved in 100% DMSO). These solutions were incubated for 60 min at 25° C., and subsequently a mixture of substrate peptide and ATP was added with the final peptide and ATP concentrations at 0.3 μM and 200 μM respectively. The final reaction mixture of enzyme-substrate-ATP-compound was incubated for 40 min at 37° C. Meanwhile the detection mixture containing the TK-antibody and Streptavidin-XL665 diluted in the detection buffer (50 mM HEPES, pH7.0, with additives) was prepared, and added to the reaction mixture at final concentrations of 25 nM and 18.5 nM respectively. After incubation for 60 min at 25° C., the FRET signal of the final solution was measured at 665 nm and 612 nm emissions on a TECAN Spark 10M instrument (TECAN). The percent (%) inhibition at each concentration of a compound was calculated relative to the FRET signal in the Max and Min control wells contained within each assay plate. The Max control wells contained enzyme and substrate as 0% inhibition, and the Min control wells only contained substrate without enzyme as 100% inhibition. The concentrations and percent inhibition values for a test compound are plotted and the concentration of the compound required to achieve 50% inhibition (IC50) was determined with a four-parameter logistic dose response equation. Dose-response curves were generated using Prism (GraphPad Software, La Jolla, CA, US) to calculate IC50 values for each compound tested.
A general note: TR-FRET usually uses a lanthanide donor and a delayed reading to cut background.

Our source for the IC50 values is patent US11976058B2, “Aromatic derivatives, preparation methods, and medical uses thereof” (Bioardis LLC, priority 2019, dated 2024).

Each structure is given as a SMILES string.

T1 sequence (P22455 460-802): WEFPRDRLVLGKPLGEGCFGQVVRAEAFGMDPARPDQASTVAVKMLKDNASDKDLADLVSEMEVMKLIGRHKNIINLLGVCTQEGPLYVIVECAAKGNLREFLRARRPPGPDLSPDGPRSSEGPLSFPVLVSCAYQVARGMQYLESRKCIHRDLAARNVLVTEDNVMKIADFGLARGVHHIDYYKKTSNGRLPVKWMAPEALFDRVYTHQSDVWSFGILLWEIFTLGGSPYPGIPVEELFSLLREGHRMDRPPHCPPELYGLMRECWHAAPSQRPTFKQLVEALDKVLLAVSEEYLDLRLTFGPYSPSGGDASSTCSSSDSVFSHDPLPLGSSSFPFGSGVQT

One may read the IC50 as the concentration needed to halve the response being measured. `C=C(F)C(=O)Nc1cnn(C)c1-c1n[nH]c2c1CCC(c1c(F)c(OC)cc(OC)c1F)C2` (single isomer, unassigned) [Compound S21-P1, N-(5-(6-(2,6-difluoro-3,5-dimethoxyphenyl)-4,5,6,7-tetrahydro-1H-indazol-3-yl)-1-methyl-1H-pyrazol-4-yl)-2-fluoroacrylamide]: the IC50 was above 0.1 µM.
In the case of `C=CC(=O)N[C@@H]1COC[C@@H]1c1n[nH]c2c1CC[C@H](c1c(Cl)c(OC)cc(OC)c1Cl)C2` [Compound S10-P3, N-((3S,4S)-4-((S)-6-(2,6-dichloro-3,5-dimethoxyphenyl)-4,5,6,7-tetrahydro-1H-indazol-3-yl)tetrahydrofuran-3-yl)acrylamide] it was above 0.1 µM; in that of `C=CC(=O)Nc1cnn(CC(F)(F)F)c1-c1n[nH]c2c1CCC(c1c(F)c(OC)cc(OC)c1F)C2` (single isomer, unassigned) [Compound S18-P2, N-(5-(6-(2,6-difluoro-3,5-dimethoxyphenyl)-4,5,6,7-tetrahydro-1H-indazol-3-yl)-1-(2,2,2-trifluoroethyl)-1H-pyrazol-4-yl)acrylamide], above 0.1 µM.
In the case of `C=C(C)C(=O)Nc1cnn(C)c1-c1n[nH]c2c1CCC(c1c(Cl)c(OC)cc(OC)c1Cl)C2` (single isomer, unassigned) [Compound S2-P1, N-(5-(6-(2,6-dichloro-3,5-Dimethoxyphenyl)-4,5,6,7-tetrahydro-1H-indazol-3-yl)-1-methyl-1H-pyrazol-4-yl) Methacrylamide] it was above 0.1 µM.
To `C=CC(=O)N[C@H]1COC[C@H]1c1n[nH]c2c1CC[C@H](c1cc(OC)cc(OC)c1F)C2` [Compound S13-P3, N-((3R,4R)-4-((S)-6-(2-fluoro-3,5-dimethoxyphenyl)-4,5,6,7-tetrahydro-1H-indazol-3-yl)tetrahydrofuran-3-yl)acrylamide] belongs above 0.1 µM.
On to `C=CC(=O)Nc1cnn(CC(F)(F)F)c1-c1n[nH]c2c1CCC(c1c(F)c(OC)cc(OC)c1F)C2` (single isomer, unassigned) [Compound S18-P1, N-(5-(6-(2,6-difluoro-3,5-dimethoxyphenyl)-4,5,6,7-tetrahydro-1H-indazol-3-yl)-1-(2,2,2-trifluoroethyl)-1H-pyrazol-4-yl)acrylamide], for which the IC50 is above 0.1 µM.
As for `C=CC(=O)N[C@@H]1COC[C@@H]1c1n[nH]c2c1CC[C@@H](c1c(Cl)c(OC)cc(OC)c1Cl)C2` [Compound S10-P2, N-((3S,4S)-4-((R)-6-(2,6-dichloro-3,5-dimethoxyphenyl)-4,5,6,7-tetrahydro-1H-indazol-3-yl)tetrahydrofuran-3-yl)acrylamide], the IC50 was above 0.1 µM.
For `C=C(F)C(=O)Nc1cnn(C)c1-c1n[nH]c2c1CCC(c1c(F)c(OC)cc(OC)c1F)C2` (single isomer, unassigned) [Compound S21-P2, N-(5-(6-(2,6-difluoro-3,5-dimethoxyphenyl)-4,5,6,7-tetrahydro-1H-indazol-3-yl)-1-methyl-1H-pyrazol-4-yl)-2-fluoroacrylamide], the IC50 was above 0.1 µM.
To `CCC(=O)Nc1cnn(C)c1-c1n[nH]c2c1CCC(c1c(F)c(OC)cc(OC)c1F)C2` (single isomer, unassigned) [Compound S20-P2, N-(5-(6-(2,6-difluoro-3,5-dimethoxyphenyl)-4,5,6,7-tetrahydro-1H-indazol-3-yl)-1-methyl-1H-pyrazol-4-yl)propionamide] belongs above 0.1 µM; to `COc1cc(OC)c(F)c(C2CCc3c(-c4c(NC(C)=O)cnn4C)n[nH]c3C2)c1F` (single isomer, unassigned) [Compound S19-P2, N-(5-(6-(2,6-difluoro-3,5-dimethoxyphenyl)-4,5,6,7-tetrahydro-1H-indazol-3-yl)-1-methyl-1H-pyrazol-4-yl)acetamide], above 0.1 µM.
